These results are taken from patent US20050148633A1 (priority 2003, published 2005).

pIC50: −log10 of the molar value.

One assay deals with TNF-α production. The experiment in a line: TNF-α production upon PMA/ionomycin stimulation in whole blood of dosed cynomolgus monkeys. The assay is classed as in vivo. The conditions noted are these: IV 5 mg/kg, 4 hours after dosing. The protocol:
(§1) 3 male non-native cynomolgus monkeys were fasted overnight prior to and for four (4) hours following each dose. Each monkey was given a single intravenous dose of the appropriate test compound followed by a 1 mL rinse of saline to flush the catheter. The dose was infused over one hour using calibrated syringe pumps. Following a one week washout, the same three monkeys were given a single oral gavage dose of the appropriate test compound dose formulation followed by a 10 mL flush with tap water. Following a second one week washout, the same three monkeys received a second oral dose of the appropriate test compound dose formulation followed by a 10 mL flush with tap water. Following a third one week washout, the same three monkeys received a third oral dose of the appropriate test compound dose formulation followed by a 10 mL flush with tap water. Prior to and at 1, 2, and 4 hours following each dose (measured from the start of dosing for IV doses), blood samples ([…] for Group 1 and 2 mL/sample for Groups 2 and 3) were drawn into tubes containing sodium heparin and stored at room temperature, and the concentration of the test compounds in each sample was measured. CsA was included as a positive control.

For the next assay, the system named is RBL cells. The experiment in a line: Inhibition of degranulation in RBL cells. The assay is classed as cell-based. The conditions noted are these: Rattus norvegicus, anti-DNP IgE / anti-IgE, read-out: concentration at which 50% of degranulation is inhibited. The method, then:
Procedure: • The day before the assay was performed, RBL cells, that had been grown to confluence in a 96 well plate, were incubated at 37° C. for at least 2 hours. The medium was replaced in each well with 100 μL of fresh medium containing of anti-DNP IgE.
On the following day, the cells were washed once with PRS (2.6 mM glucose and 0.1% BSA) and 160 μL of PRS was added to each well. The test compound was addded to a well in a 20 μL solution at 10× of the desired concentration and incubated for 20 to 40 minutes at 37° C. 20 μL of 10× mouse anti-IgE (10 μL/mL). Maximum degranulation occurred between 15 to 40 minutes after addition of anti-IgE.

The test system of a further assay is IL-2. The experiment in a line: Cytokine inhibition in PHA-stimulated primary human PBMCs: IL-2. Format: cell-based. The conditions noted are these: PBMC. The method, then:
(§2) Cytokine production was measured using commercially available human ELISA assay kits (from Cell Science, Inc.) following the manufacturers instructions.

The test system of another assay is IL-10. The experiment in a line: Cytokine inhibition in PHA-stimulated primary human PBMCs: IL-10. The assay is classed as cell-based. The conditions noted are these: PBMC. The method, then: as §2
In a further assay the test system is IL-13. The experiment in a line: Cytokine inhibition in PHA-stimulated primary human PBMCs: IL-13. The assay is classed as cell-based. The conditions noted are these: PBMC. The protocol: as §2
The test system of assay [1] is CRAC ion channel (ICRAC current). The experiment in a line: Patch clamp inhibition of ICRAC current in primary T cells. The assay is classed as cell-based. Conditions: primary human T cells, varying concentrations. The method, then: Membrane currents of individual cells were recorded using the whole-cell configuration of the patch clamp technique with an EPC10 (HEKA Electronik, Lambrecht, Germany). Electrodes (2-5 MD in resistance) were fashioned from borosilicate glass capillary tubes (Sutter Instruments, Novato, Ca). The recordings were done at room temperature.
ICRAC currents were monitored every 2 seconds using a 50 msec protocol, where the voltage was ramped from −100 mV to +100 mV. The membrane potential was held at 0 mV between the test ramps. In a typical experiment the peak inward currents would develop within 50-100 seconds. Once the ICRAC currents were stabilized, the cells were perfused with compounds in the extracellular solution. At the end of an experiment the remaining ICRAC currents were then challenged with a control compound (SKF96365, 10 μM) to ensure that the current could still be inhibited.
The ICRAC current level was determined by measuring the inward current amplitude at −80 mV of the voltage ramp in an off-line analysis using MATLAB. The ICRAC current inhibition for each concentration was calculated using peak amplitude in the beginning of the experiment from the same cell. The IC50 value and Hill coefficient for each compound was estimated by fitting all the individual data points to a single Hill equation. […]
(In general: The patch-clamp technique gives a direct electrical read-out from membranes.)

Another assay concerns TNF-α. The experiment in a line: Cytokine inhibition in PHA-stimulated primary human PBMCs: TNF-α. Format: cell-based. The conditions noted are these: PBMC. The method, then: as §2
A further assay has as its system IL-5. The experiment in a line: Cytokine inhibition in PHA-stimulated primary human PBMCs: IL-5. The assay is classed as cell-based. The conditions noted are these: PBMC. The method, then: as §2
For the next assay, the system named is IL-2 production. The experiment in a line: IL-2 production upon PMA/ionomycin stimulation in whole blood of dosed cynomolgus monkeys. Format: in vivo. Conditions: IV 5 mg/kg, 4 hours after dosing. The protocol: as §1
A further assay deals with IL-4. The experiment in a line: Cytokine inhibition in PHA-stimulated primary human PBMCs: IL-4. The assay is classed as cell-based. The conditions noted are these: PBMC. The method, then: as §2
Assay [2] has as its system CRAC ion channel (ICRAC current). The experiment in a line: Patch clamp inhibition of ICRAC current in Jurkat cells. Format: cell-based, human. Conditions: 1 μM compound, n=3. The method, then: In general, a whole cell patch clamp method was used to examine the effects of a compound of the invention on a channel that mediates Icrac. In such experiments, a baseline measurement was established for a patched cell. Then a compound to be tested was perfused (or puffed) to cells in the external solution and the effect of the compound on Icrac was measured. A compound that modulates Icrac (e.g., inhibits) is a compound that is useful in the invention for modulating CRAC ion channel activity.
Jurkat T cells were grown on glass coverslips, transferred to the recording chamber and kept in a standard modified Ringers solution of the following composition: NaCl 145 mM, KCl 2.8 mM, CsCl 10 mM, CaCl2 10 mM, MgCl2 2 mM, glucose 10 mM, HEPES.NaOH 10 mM, pH 7.2.
The external solution contained 10 mM CaNaR, 11.5 mM glucose and the test compound at the concentrations described below.
The standard intracellular pipette solution contained: Cs-glutamate 145 mM, NaCl 8 mM, MgCl2 1 mM, ATP 0.5 mM, GTP 0.3 mM, pH 7.2 adjusted with CsOH. […]
Patch-clamp experiments were performed in the tight-seal whole-cell configuration at 21-25° C. […] Capacitive currents and series resistance were determined and corrected before each voltage ramp using the automatic capacitance compensation of the EPC-9. […]

A further assay concerns INF-γ. The experiment in a line: Cytokine inhibition in PHA-stimulated primary human PBMCs: INF-γ. Format: cell-based. Conditions: PBMC. The protocol:
as §2

Another assay deals with GM-CSF. The experiment in a line: Cytokine inhibition in PHA-stimulated primary human PBMCs: GM-CSF. Conditions: PBMC. Format: cell-based. The method, then:
as §2

Turning to `COc1ccc(OC)c(-c2ccc(NC(=O)c3cccc(F)c3F)cc2)c1` [Compound 31, N-(2′,5′-Dimethoxy-biphenyl-4-yl)-2,3-difluoro-benzamide], the “TNF-α production after IV infusion (FIG. 4)” value with TNF-α production was “significantly inhibit TNF-α production”. The pIC50 in the assay on RBL cells was 6.42; in the assay on IL-2, 8.22; with IL-10 it was < 6.00; in the assay with IL-13 it was 7.29; in the assay with TNF-α, 7.17; in the assay with IL-5, 7.96. In addition, the pIC50 is 7.15 in the assay on IL-4, 7.38 with INF-γ and 7.01 with GM-CSF. In addition, in assay [1], the “inhibition of ICRAC current in primary T cells compared with RBL cells (FIG. 1)” value is “inhibits ICRAC current equally well in primary T cells as in RBL cells”. Besides, the “IL-2 production after IV infusion (FIG. 3)” value in the assay with IL-2 production is recorded as “significantly inhibit IL-2 production”. The “inhibition of Icrac in Jurkat cells” value in assay [2] was > 43%.
